According to patent US6410041B1, “Culturing cells in presence of amphipathic weak bases and/or cations and multiple drug resistance inhibitor containing reserpine” (priority 1998, dated 2002):
Converted amounts (≈) assume the structure as drawn. Read-outs that look alike come from different tables or passages of the source.

Legend:
[1] = system: Staphylococcus aureus KLE 820 (norA−); assay: microbe, parasite or virus in culture; assay type: cell-based; conditions: for substrate of NorA: based on comparison of MIC from wild type and norA−; for Sensitivity of norA- as compared to the wild type: in the absence of reserpine; for effect of addition of reserpine on sensitivity to drugs: norA mutant
Source text: Disruption of the norA gene. Chloramphenicol acetyltransferase (CAT) gene was isolated by digesting plasmid pLI50 (10) with Sau3A (New England Biolabs). The CAT gene was cloned into the BamHI site of plasmid pSP72 (Promega) to yield plasmid PCH22. Chromosomal DNA from S. aureus RN4220 was isolated according to the protocol of Qiagen, Inc. Part of the 1050 bp norA gene lacking a 80 bp N-terminus and a 20 bp C-terminus was PCR-amplified from chromosomal DNA using primer A:5′-[…]-[…] and primer B:5′-[…]. This fragment was cloned into the EcoRI/EcoRV site of PCH22 to yield plasmid PCH23. S. aureus were transformed by PCH23 using electroporation (11). Cells were plated on trypticase soy agar (TSA) with chloramphenicol. A transformant colony was picked after 24 hours of incubation at 37 C., regrown, plated on CAM medium and a large colony was picked for further work.
(§1) Determination of minimal inhibitory concentrations (MICs). MICs were determined by serial two-fold dilution of antimicrobials in Mueller-Hinton broth containing chloramphenicol ([…]). […] Around 10^5 cells were inoculated in 1 ml of medium for the test. MICs were read after 18 hours of incubation at 37 C. with aeration. The 50% inhibitory concentration (IC50) was determined by growing cells in microtiter plate wells and reading the optical density after overnight growth at 650 nm.

[2] = system: Staphylococcus aureus RN 4222 (WT); assay: MIC determination in wild type S. aureus; assay type: cell-based
Description: as §1

S. aureus = assay: MICs of antimicrobials with small molecule MDR inhibitor (I) and high pH; assay type: cell-based, Staphylococcus aureus; conditions: for substrate of MDR pumps: cationic plant antimicrobial alkaloids; for Potentiation factor (pH 7/(pH 9 + I)): pH 7 vs pH 9 + I; for potentiation by high pH and MDR inhibitor: high pH combined with MDR inhibitor / MDR inactivation
Description: as §1

[3] = Staphylococcus aureus, pH 7.2, KLE 820 (norA−), pH 7.2
[4] = Staphylococcus aureus, pH 9, KLE 820 (norA−), pH 9
[5] = Staphylococcus aureus, RN 4222 (WT), pH 7.2, read-out: MIC
[6] = Staphylococcus aureus, RN 4222 (WT), pH 9, read-out: MIC
[7] = Staphylococcus aureus, pH 7, read-out: MIC
[8] = Staphylococcus aureus, pH 9, read-out: MIC
[9] = Staphylococcus aureus, RN 4222 (WT), −R (no reserpine), read-out: MIC
[10] = RN 4222 (WT), +R (20 μg/mL reserpine)
[11] = Staphylococcus aureus, KLE 820 (norA−), −R (no reserpine)
[12] = KLE 820 (norA−), +R (20 μg/mL reserpine)
[13] = KLE 820 (norA−), −R (no reserpine)
[14] = RN 4222 (WT), −R (no reserpine)

COc1ccc2cc3[n+](cc2c1OC)CCc1cc2c(cc1-3)OCO2 [Berberine]
MIC [1, 3]: 7.5 µg/mL
MIC [1, 4]: 0.23 µg/mL
substrate of NorA [1]: substrates of NorA
increase in sensitivity, pH 9 combined with norA mutation ([1]; norA− at pH 9 vs wild type at neutral pH): 260 fold
Sensitivity norA− at pH 9 vs. WT at pH 7.2 [1]: 260
increase in sensitivity by norA mutation ([1]; norA− vs wild type): 32 fold
MIC [2, 5]: 60 µg/mL
MIC [2, 6]: 3.75 µg/mL
MIC (S. aureus; [7]): 60 µg/mL
MIC (S. aureus; [8]): 7.5 µg/mL
MIC (S. aureus; Staphylococcus aureus, MDR inhibitor and high pH, read-out: MIC): 0.012 µg/mL
substrate of MDR pumps (S. aureus): good substrates of MDR pumps
MIC (S. aureus; pH 7 + I (10 μg/mL)): 0.4 µg/mL
Ratio (S. aureus; pH 7 vs pH 7 + I): 150
Potentiation factor (pH 7/(pH 9 + I)) (S. aureus): 4,800
MIC (S. aureus; pH 9 + I): 0.0125 µg/mL
Ratio (S. aureus; pH 9 vs pH 9 + I): 600
increase in potency by MDR inhibitor (S. aureus; proprietary MDR inhibitor (I), Table 3, pH 7): 150 fold

CC(=O)OCC1=C(C(=O)O)N2C(=O)[C@@H](NC(=O)Cc3cccs3)[C@H]2SC1 [Cephalothin]
Sensitivity of norA- as compared to the wild type [1]: 1
MIC [2, 9]: 0.15 µg/mL (≈ 0.378 µM)

[H]/N=C(\N/C(=N/[H])NCCCCCCNC(=N)NC(=N)Nc1ccc(Cl)cc1)Nc1ccc(Cl)cc1 [Chlorhexidine]
MIC [1, 3]: 0.125 µg/mL (≈ 0.247 µM)
MIC [1, 4]: 0.0156 µg/mL (≈ 0.0309 µM)
Sensitivity norA− at pH 9 vs. WT at pH 7.2 [1]: 32
MIC [2, 5]: 0.5 µg/mL (≈ 0.989 µM)
MIC [2, 6]: 0.06 µg/mL (≈ 0.119 µM)
effect of pH 9 on sensitivity / effectiveness ([2]; change of pH from 7 to 9): significantly increased the effectiveness
MIC (S. aureus; [7]): 0.5 µg/mL (≈ 0.989 µM)
MIC (S. aureus; [8]): 0.12 µg/mL (≈ 0.237 µM)
potentiation by high pH and MDR inhibitor (S. aureus): 133 fold
MIC (S. aureus; pH 7 + I (10 μg/mL)): 0.06 µg/mL
Ratio (S. aureus; pH 7 vs pH 7 + I): 8.3
Potentiation factor (pH 7/(pH 9 + I)) (S. aureus): 133
MIC (S. aureus; pH 9 + I): 0.0037 µg/mL
Ratio (S. aureus; pH 9 vs pH 9 + I): 32

O=C(O)c1cn(C2CC2)c2cc(N3CCNCC3)c(F)cc2c1=O [Ciprofloxacin]
MIC [2, 10]: 0.33 µg/mL (≈ 0.996 µM)
MIC [2, 9]: 0.67 µg/mL (≈ 2.02 µM)

CCC[C@@H]1C[C@@H](C(=O)N[C@@H]([C@H]2O[C@H](SC)[C@H](O)[C@@H](O)[C@H]2O)[C@H](C)Cl)N(C)C1 [Clindamycin]
Sensitivity of norA- as compared to the wild type [1]: 1
MIC [2, 9]: 0.047 µg/mL (≈ 0.111 µM)

CC[C@H]1OC(=O)[C@H](C)[C@@H](O[C@H]2C[C@@](C)(OC)[C@@H](O)[C@H](C)O2)[C@H](C)[C@@H](O[C@@H]2O[C@H](C)C[C@H](N(C)C)[C@H]2O)[C@](C)(O)C[C@@H](C)C(=O)[C@H](C)[C@@H](O)[C@]1(C)O [Erythromycin]
MIC [1, 11]: 0.195 µg/mL (≈ 0.266 µM)
Sensitivity of norA- as compared to the wild type [1]: 1
MIC ([2]; Staphylococcus aureus): 0.195 µg/mL (≈ 0.266 µM)

CC[n+]1c(-c2ccccc2)c2cc(N)ccc2c2ccc(N)cc21 [EtBr, ethidium bromide]
MIC [1, 12]: 0.33 µg/mL
MIC [1, 11]: 0.33 µg/mL
MIC [1, 3]: 0.312 µg/mL
MIC [1, 4]: 0.01 µg/mL
Sensitivity of norA- as compared to the wild type [1]: 16
Sensitivity norA− at pH 9 vs. WT at pH 7.2 [1]: 500
MIC [2, 10]: 1.25 µg/mL
MIC ([2]; Staphylococcus aureus): 5 µg/mL
MIC ([2]; Staphylococcus aureus, pH 7.2): 5 µg/mL
MIC ([2]; Staphylococcus aureus, pH 9): 0.078 µg/mL

NC[C@H]1O[C@H](O[C@H]2[C@H](O)[C@@H](O[C@H]3O[C@H](CO)[C@@H](O)[C@H](N)[C@H]3O)[C@H](N)C[C@@H]2N)[C@H](O)[C@@H](O)[C@@H]1O [Kanamycin]
Sensitivity of norA- as compared to the wild type [1]: 1
MIC [2, 9]: 0.33 µg/mL (≈ 0.681 µM)

CCC[C@@H]1C[C@@H](C(=O)N[C@@H]([C@H]2O[C@H](SC)[C@H](O)[C@@H](O)[C@H]2O)[C@@H](C)O)N(C)C1 [Lincomycin]
Sensitivity of norA- as compared to the wild type [1]: 1
MIC [2, 9]: 0.6 µg/mL (≈ 1.48 µM)

CCn1cc(C(=O)O)c(=O)c2cc(F)c(N3CCNCC3)cc21 [Norfloxacin]
MIC [1, 12]: 0.33 µg/mL (≈ 1.03 µM)
MIC [1, 11]: 0.33 µg/mL (≈ 1.03 µM)
MIC [1, 3]: 0.33 µg/mL (≈ 1.03 µM)
MIC [1, 4]: 0.33 µg/mL (≈ 1.03 µM)
Sensitivity of norA- as compared to the wild type [1]: 4
Sensitivity norA− at pH 9 vs. WT at pH 7.2 [1]: 4
MIC [2, 10]: 0.67 µg/mL (≈ 2.1 µM)
MIC [2, 5]: 1.25 µg/mL (≈ 3.91 µM)
MIC [2, 6]: 1.25 µg/mL (≈ 3.91 µM)
MIC [2, 9]: 1.25 µg/mL (≈ 3.91 µM)

COc1cc2c(cc1OC)-c1cc3ccc(OC)c(OC)c3c[n+]1CC2 [Palmatine]
MIC ([1]; KLE 820 (norA−), pH 7.2): 50 µg/mL
MIC ([1]; KLE 820 (norA−), pH 9): 0.78 µg/mL
substrate of NorA [1]: substrates of NorA
MIC ([2]; RN 4222 (WT), pH 7.2): 200 µg/mL
MIC ([2]; RN 4222 (WT), pH 9): 12.5 µg/mL
substrate of MDR pumps (S. aureus): good substrates of MDR pumps
MIC (S. aureus; pH 7): 100 µg/mL
MIC (S. aureus; pH 7 + I (10 μg/mL)): 1.6 µg/mL
Potentiation factor (pH 7/(pH 9 + I)) (S. aureus): 1,250
MIC (S. aureus; pH 9): 25 µg/mL
MIC (S. aureus; pH 9 + I): 0.08 µg/mL

COc1ccc(C[C@H](N)C(=O)N[C@H]2[C@@H](O)[C@H](n3cnc4c(N(C)C)ncnc43)O[C@@H]2CO)cc1 [Puromycin]
Sensitivity norA− at pH 9 vs. WT at pH 7.2 [1]: 8
MIC [2, 5]: 20 µg/mL (≈ 42.4 µM)
MIC [2, 6]: 2.5 µg/mL (≈ 5.3 µM)

COC(=O)[C@H]1[C@H]2C[C@@H]3c4[nH]c5cc(OC)ccc5c4CCN3C[C@H]2C[C@@H](OC(=O)c2cc(OC)c(OC)c(OC)c2)[C@@H]1OC [Reserpine]
effect of addition of reserpine on sensitivity to drugs [1]: virtually no effect
effect of addition of reserpine on sensitivity to drugs ([1]; listed as Reserpin): failed to further increase sensitivity
effect of addition of reserpine on sensitivity to drugs ([2]; wild type): increased the sensitivity of the wild type to drugs

C[n+]1cc2c3c(ccc2c2ccc4cc5c(cc4c21)OCO5)OCO3 [Sanguinarine]
MIC (S. aureus; [7]): 2.5 µg/mL
MIC (S. aureus; [8]): 1.25 µg/mL
potentiation by high pH and MDR inhibitor (S. aureus): approximately 100 fold
MIC (S. aureus; pH 7 + I (10 μg/mL)): 0.67 µg/mL
Ratio (S. aureus; pH 7 vs pH 7 + I): 3.7
Potentiation factor (pH 7/(pH 9 + I)) (S. aureus): 16.6
MIC (S. aureus; pH 9 + I): 0.15 µg/mL
Ratio (S. aureus; pH 9 vs pH 9 + I): 8.3

[Br-].c1ccc([P+](c2ccccc2)(c2ccccc2)c2ccccc2)cc1 [TPP, tetraphenylphosphonium bromide]
MIC [1, 12]: 1.9 µg/mL
MIC [1, 11]: 1.9 µg/mL
MIC [1, 3]: 1.98 µg/mL
MIC [1, 4]: 0.12 µg/mL
Sensitivity of norA- as compared to the wild type [1]: 8
Sensitivity norA− at pH 9 vs. WT at pH 7.2 [1]: 130
MIC [2, 10]: 7.8 µg/mL
MIC ([2]; Staphylococcus aureus): 15.6 µg/mL
MIC ([2]; Staphylococcus aureus, pH 7.2): 15.6 µg/mL
MIC ([2]; Staphylococcus aureus, pH 9): 0.48 µg/mL

CN(C)[C@@H]1C(O)=C(C(N)=O)C(=O)[C@@]2(O)C(O)=C3C(=O)c4c(O)cccc4[C@@](C)(O)[C@H]3C[C@@H]12 [Tetracycline]
Sensitivity of norA- as compared to the wild type [1]: 1
MIC [2, 9]: 0.097 µg/mL (≈ 0.218 µM)

CN[C@H](CC(C)C)C(=O)N[C@H]1C(=O)N[C@@H](CC(N)=O)C(=O)N[C@H]2C(=O)N[C@H]3C(=O)N[C@H](C(=O)N[C@H](C(=O)O)c4cc(O)cc(O)c4-c4cc3ccc4O)[C@H](O)c3ccc(c(Cl)c3)Oc3cc2cc(c3O[C@@H]2O[C@H](CO)[C@@H](O)[C@H](O)[C@H]2O[C@H]2C[C@](C)(N)[C@H](O)[C@H](C)O2)Oc2ccc(cc2Cl)[C@H]1O [Vancomycin]
MIC ([1]; Staphylococcus aureus): 1.5 µg/mL (≈ 1.04 µM)
Sensitivity of norA- as compared to the wild type [1]: 1
MIC ([2]; Staphylococcus aureus): 1.5 µg/mL (≈ 1.04 µM)

Acriflavine
MIC [1, 12]: 2.5 µg/mL
MIC [1, 13]: 2.5 µg/mL
Sensitivity of norA- as compared to the wild type [1]: 8
MIC [2, 10]: 10 µg/mL
MIC [2, 14]: 20 µg/mL

Gentamycin
MIC [1, 13]: 0.62 µg/mL
Sensitivity of norA- as compared to the wild type [1]: 1
MIC [2, 14]: 0.62 µg/mL
